Data reported in PubChem BioAssay (NCI).
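Assay format: 96-well plates, 48-hour exposure. At the GI50, growth is halved. TGI: total growth inhibition.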

How the values were obtained:
Assay in all cases: DTP human tumour cell line panel, 48 h
SW-620 colon = test system: SW-620 colon
CCRF-CEM leukemia = test system: CCRF-CEM leukemia
NCI-H522 lung = test system: NCI-H522 lung
SK-MEL-5 melanoma = test system: SK-MEL-5 melanoma
PC-3 prostate = test system: PC-3 prostate
NCI-H226 lung = test system: NCI-H226 lung
SK-MEL-2 melanoma = test system: SK-MEL-2 melanoma
SN12C renal = test system: SN12C renal
HL-60(TB) leukemia = test system: HL-60(TB) leukemia
DU-145 prostate = test system: DU-145 prostate
UO-31 renal = test system: UO-31 renal
UACC-257 melanoma = test system: UACC-257 melanoma
HS 578T breast = test system: HS 578T breast
K-562 leukemia = test system: K-562 leukemia
MCF7 breast = test system: MCF7 breast
ACHN renal = test system: ACHN renal
HCT-116 colon = test system: HCT-116 colon
UACC-62 melanoma = test system: UACC-62 melanoma
MDA-MB-435 = test system: MDA-MB-435
HOP-62 NSCLC = test system: HOP-62 NSCLC
SR leukemia = test system: SR leukemia
HOP-92 NSCLC = test system: HOP-92 NSCLC
KM12 colon = test system: KM12 colon
OVCAR-5 ovarian = test system: OVCAR-5 ovarian
A549 NSCLC = test system: A549 NSCLC
MDA-MB-231 breast = test system: MDA-MB-231 breast
TK-10 renal = test system: TK-10 renal
OVCAR-4 ovarian = test system: OVCAR-4 ovarian
786-0 renal = test system: 786-0 renal
SF-539 CNS = test system: SF-539 CNS
OVCAR-3 ovarian = test system: OVCAR-3 ovarian
SF-268 CNS = test system: SF-268 CNS
NCI/ADR-RES ovarian = test system: NCI/ADR-RES ovarian
HT29 colon = test system: HT29 colon
SK-OV-3 ovarian = test system: SK-OV-3 ovarian
U251 CNS = test system: U251 CNS
SNB-75 CNS = test system: SNB-75 CNS
IGROV1 ovarian = test system: IGROV1 ovarian
HCC-2998 colon = test system: HCC-2998 colon
EKVX NSCLC = test system: EKVX NSCLC
MALME-3M melanoma = test system: MALME-3M melanoma
A498 renal = test system: A498 renal
MOLT-4 leukemia = test system: MOLT-4 leukemia
COLO 205 colon = test system: COLO 205 colon
BT-549 breast = test system: BT-549 breast
M14 melanoma = test system: M14 melanoma
HCT-15 colon = test system: HCT-15 colon
SNB-19 CNS = test system: SNB-19 CNS
RPMI-8226 leukemia = test system: RPMI-8226 leukemia
NCI-H23 lung = test system: NCI-H23 lung
CAKI-1 renal = test system: CAKI-1 renal
OVCAR-8 ovarian = test system: OVCAR-8 ovarian
NCI-H460 lung = test system: NCI-H460 lung
SK-MEL-28 melanoma = test system: SK-MEL-28 melanoma

CC(=O)N=c1ccc2nc3c(cc(N)c4ccccc43)oc-2c1
GI50 (SW-620 colon): 745 nM
TGI (SW-620 colon): 2390 nM
GI50 (CCRF-CEM leukemia): 700 nM
TGI (CCRF-CEM leukemia): 5650 nM
GI50 (NCI-H522 lung): 1440 nM
TGI (NCI-H522 lung): 3470 nM
GI50 (SK-MEL-5 melanoma): 330 nM
TGI (SK-MEL-5 melanoma): 1350 nM
GI50 (PC-3 prostate): 1050 nM
TGI (PC-3 prostate): 5830 nM
TGI (NCI-H226 lung): > 39100 nM
GI50 (SK-MEL-2 melanoma): 1570 nM
TGI (SK-MEL-2 melanoma): 3340 nM
GI50 (SN12C renal): 1390 nM
TGI (SN12C renal): 2900 nM
GI50 (HL-60(TB) leukemia): 279 nM
TGI (HL-60(TB) leukemia): 6800 nM
GI50 (DU-145 prostate): 1660 nM
TGI (DU-145 prostate): 3030 nM
GI50 (UO-31 renal): 1030 nM
TGI (UO-31 renal): 2460 nM
GI50 (UACC-257 melanoma): 467 nM
TGI (UACC-257 melanoma): 1910 nM
TGI (HS 578T breast): > 23800 nM
GI50 (K-562 leukemia): 389 nM
GI50 (MCF7 breast): 753 nM
TGI (MCF7 breast): 2400 nM
GI50 (ACHN renal): 1340 nM
TGI (ACHN renal): 2620 nM
GI50 (HCT-116 colon): 323 nM
TGI (HCT-116 colon): 1240 nM
GI50 (UACC-62 melanoma): 1410 nM
TGI (UACC-62 melanoma): 2720 nM
GI50 (MDA-MB-435): 207 nM
TGI (MDA-MB-435): 421 nM
GI50 (HOP-62 NSCLC): 573 nM
TGI (HOP-62 NSCLC): 1830 nM
GI50 (SR leukemia): 1670 nM
TGI (SR leukemia): > 21200 nM
GI50 (HOP-92 NSCLC): 1400 nM
TGI (HOP-92 NSCLC): 4940 nM
GI50 (KM12 colon): 1440 nM
TGI (KM12 colon): 2870 nM
GI50 (OVCAR-5 ovarian): 1800 nM
TGI (OVCAR-5 ovarian): 3940 nM
GI50 (A549 NSCLC): 1080 nM
TGI (A549 NSCLC): 3420 nM
GI50 (MDA-MB-231 breast): 1250 nM
TGI (MDA-MB-231 breast): 3920 nM
GI50 (TK-10 renal): 2640 nM
TGI (TK-10 renal): 6340 nM
GI50 (OVCAR-4 ovarian): 409 nM
TGI (OVCAR-4 ovarian): 1640 nM
GI50 (786-0 renal): 1460 nM
TGI (786-0 renal): 2930 nM
GI50 (SF-539 CNS): 1630 nM
TGI (SF-539 CNS): 3050 nM
GI50 (OVCAR-3 ovarian): 207 nM
TGI (OVCAR-3 ovarian): 684 nM
GI50 (SF-268 CNS): 1660 nM
TGI (SF-268 CNS): 3430 nM
GI50 (NCI/ADR-RES ovarian): 1620 nM
TGI (NCI/ADR-RES ovarian): 4950 nM
GI50 (HT29 colon): 2090 nM
TGI (HT29 colon): 4620 nM
GI50 (SK-OV-3 ovarian): 1920 nM
TGI (SK-OV-3 ovarian): 4950 nM
GI50 (U251 CNS): 1430 nM
TGI (U251 CNS): 2860 nM
GI50 (SNB-75 CNS): 1830 nM
TGI (SNB-75 CNS): 3340 nM
GI50 (IGROV1 ovarian): 360 nM
TGI (IGROV1 ovarian): 1890 nM
GI50 (HCC-2998 colon): 503 nM
TGI (HCC-2998 colon): 1870 nM
GI50 (EKVX NSCLC): 1520 nM
TGI (EKVX NSCLC): 4540 nM
GI50 (MALME-3M melanoma): 1390 nM
TGI (MALME-3M melanoma): 2840 nM
GI50 (A498 renal): 1920 nM
TGI (A498 renal): 6870 nM
GI50 (MOLT-4 leukemia): 353 nM
TGI (MOLT-4 leukemia): 5260 nM
GI50 (COLO 205 colon): 1110 nM
TGI (COLO 205 colon): 2440 nM
GI50 (BT-549 breast): 2470 nM
TGI (BT-549 breast): 7460 nM
GI50 (M14 melanoma): 1580 nM
TGI (M14 melanoma): 3860 nM
GI50 (HCT-15 colon): 935 nM
TGI (HCT-15 colon): 2500 nM
GI50 (SNB-19 CNS): 1710 nM
TGI (SNB-19 CNS): 3460 nM
GI50 (RPMI-8226 leukemia): 302 nM
TGI (RPMI-8226 leukemia): 1760 nM
GI50 (NCI-H23 lung): 1270 nM
TGI (NCI-H23 lung): 4250 nM
GI50 (CAKI-1 renal): 1550 nM
TGI (CAKI-1 renal): 3170 nM
GI50 (OVCAR-8 ovarian): 1310 nM
TGI (OVCAR-8 ovarian): 3600 nM
GI50 (NCI-H460 lung): 1850 nM
TGI (NCI-H460 lung): 4240 nM
GI50 (SK-MEL-28 melanoma): 1750 nM
TGI (SK-MEL-28 melanoma): 3260 nM
